Source: paper PMC11302688, “The Effect of Replication Protein A Inhibition and Post-Translational Modification on ATR Kinase Signaling” (Research Square, 2024)
Read-outs that look alike come from different tables or passages of the source. Each block holds one molecule with its values, some of them ahead of it.

What was measured:
[1] = molecular target: T1, RPA (Homo sapiens, UniProt P27694); details: read-out: in vitro RPA-DNA binding inhibition IC50; cited from earlier work
T1 construct: His (C); made in house; host or cells: E. coli BL21(DE3)
T1 sequence (P27694 whole entry): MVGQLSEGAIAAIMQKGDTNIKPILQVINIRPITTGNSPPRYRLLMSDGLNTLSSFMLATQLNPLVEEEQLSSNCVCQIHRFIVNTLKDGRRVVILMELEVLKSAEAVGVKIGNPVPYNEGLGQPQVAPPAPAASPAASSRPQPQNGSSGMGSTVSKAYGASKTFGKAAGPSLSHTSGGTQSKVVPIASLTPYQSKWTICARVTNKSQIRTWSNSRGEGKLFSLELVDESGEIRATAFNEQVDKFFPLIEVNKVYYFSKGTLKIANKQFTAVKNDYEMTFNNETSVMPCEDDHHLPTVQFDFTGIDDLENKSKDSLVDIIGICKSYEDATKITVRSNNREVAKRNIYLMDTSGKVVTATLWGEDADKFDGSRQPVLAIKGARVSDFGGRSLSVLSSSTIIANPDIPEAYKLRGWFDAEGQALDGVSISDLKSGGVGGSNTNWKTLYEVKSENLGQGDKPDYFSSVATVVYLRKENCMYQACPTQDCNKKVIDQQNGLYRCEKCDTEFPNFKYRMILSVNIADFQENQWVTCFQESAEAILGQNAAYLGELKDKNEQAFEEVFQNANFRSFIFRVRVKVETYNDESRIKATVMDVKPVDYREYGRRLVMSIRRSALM
T1 sequence (P15927 whole entry partner): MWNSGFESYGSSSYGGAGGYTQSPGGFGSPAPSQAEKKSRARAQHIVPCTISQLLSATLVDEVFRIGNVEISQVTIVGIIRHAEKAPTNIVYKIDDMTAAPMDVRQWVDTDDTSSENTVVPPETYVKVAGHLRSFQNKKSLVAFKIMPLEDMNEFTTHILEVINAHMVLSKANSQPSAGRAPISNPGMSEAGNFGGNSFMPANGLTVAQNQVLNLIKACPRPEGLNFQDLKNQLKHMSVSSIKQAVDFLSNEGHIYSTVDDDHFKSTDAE
T1 sequence (P35244 whole entry partner): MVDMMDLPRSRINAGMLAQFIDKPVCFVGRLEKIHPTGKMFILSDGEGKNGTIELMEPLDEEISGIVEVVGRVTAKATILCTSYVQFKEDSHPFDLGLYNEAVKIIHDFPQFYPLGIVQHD

[2] = molecular target: T2, ATR-ATRIP (Homo sapiens, UniProt P27694); assay: Reconstituted ATR kinase assay (western blot of phosphorylation targets); format: biochemical; details: for IC50: fully reconstituted ATR kinase reaction; for ATR-dependent phosphorylation of RPA32 Ser33 and Thr21 / ATR-dependent phosphorylation of p53 Ser15: reconstituted reaction with ssDNA, RPA, TopBP1, ATR-ATRIP, western blot
T2 construct: His (C); purchased Eurofins DiscoverX 14–953
T2 sequence (P27694 whole entry): as the sequence (P27694 whole entry) above
T2 sequence (P15927 whole entry partner): as the sequence (P15927 whole entry partner) above
T2 sequence (P35244 whole entry partner): as the sequence (P35244 whole entry partner) above
Description: The minimal requirements to reconstitute ATR signaling in vitro are ssDNA, RPA, TopBP1, and ATR-ATRIP, and a phosphorylation target[51]–[54]. We used a similar experimental design with purified RPA, TopBP1, p53, and ATR-ATRIP, and reconstituted ATR activation and signaling using an M13mp18 ssDNA plasmid (Figure S1A-B). It has been reported that TopBP1 can stimulate ATR activity independent of RPA and in the presence or absence of a variety of DNA substrates at specific protein and salt concentrations, though the physiological relevance is unknown. We, therefore, first established physiological experimental conditions to reflect the dependence of ATR kinase activity on RPA, ssDNA, and TopBP1 by monitoring the phosphorylation of the ATR target p53 at Ser15. Low, background levels of ATR-dependent p53 phosphorylation are observed with various combinations of ssDNA, RPA, and TopBP1, however, as expected, maximal activation is observed only in the presence of all three (Fig. 1A–B). Importantly, p53 phosphorylation under our assay conditions was dependent upon RPA and ssDNA. […] (Fig. 1A–B). The RPA70 OB-F domain interacts with p53, and this interaction is thought to facilitate the recruitment of p53 for ATR phosphorylation. p53 also has weak ssDNA binding affinity that could influence it as a substrate for ATR, so we next compared the phosphorylation of wild-type (WT) p53 with that of the DNA-binding-impaired p53 R175H mutant. […] We then evaluated the impact of chemical RPA inhibition on ATR-dependent p53 phosphorylation in the reconstituted reactions. We first assessed the activity of RPA inhibitors that block the RPA-ssDNA interaction (RPA-DBi).
Kinase assays were performed in 15 mM HEPES pH 7.9, 30 mM KCl, 3 mM MgCl2, 5% glycerol, 1x phosphatase inhibitor cocktail 2 (Sigma-Aldrich, P5726), 0.5 mM DTT. RPAi were suspended in 100% DMSO, and the DMSO concentration in the final reaction mixture was kept constant at 5%. In a typical reaction (20 μL), 20 ng ATR-ATRIP, 20 nM TopBP1, 20 nM RPA, and 40 nM p53 were initially incubated on ice for 15 min. Reactions were initiated by the addition of 100 μM ATP and 1 ng M13mp18 ssDNA plasmid and incubated at 37°C for 1 hr. Reactions were quenched by the addition of 6x Laemmli buffer and brief boiling at 95°C. For reactions with RPAi, inhibitors were added for the initial 15 min incubation on ice. For reactions with pRPA, the indicated proteins (same concentrations as above) were incubated with 0.5 ng/μL DNA-PK, 100 μM ATP, and 1 ng M13mp18 ssDNA plasmid for 30 min at 37°C. Reactions were moved back to ice and 100 nM NU7441 was added to inhibit further DNA-PK kinase activity (for subsequent ATR kinase reactions) or quenched with 6x Laemmli buffer and brief boiling at 95°C (for control reactions). The remaining components required for ATR kinase reaction were then added to each reaction as indicated and returned to 37°C for 1 hr before quenching in the same manner as above. Proteins were separated by SDS-PAGE and transferred to polyvinylidene difluoride (PVDF) membranes (Bio-Rad, 1620177). Immunoblotting for RPA32 pSer33 (Thermo Fisher Scientific, A300–246A), RPA32 pSer4/8 (Thermo Fisher Scientific, A300–245A), RPA32 (Thermo Fisher Scientific, PA5–2256), and TopBP1 pSer1138 (Thermo Fisher Scientific, PA5–114666) were conducted in Tris-buffered saline (TBS)/0.5% Tween20 and immunoblotting for p53 pSer15 (Cell Signaling Technology, 9284S), p53 (Cell Signaling Technology, 2524S), and RPA32 pThr21 (Thermo Fisher Scientific, PA5–104809) were conducted in TBS/0.1% Tween20. All membranes were blocked with 2% BSA in TBS/Tween20 and incubated rocking at 4°C overnight. Membranes were washed with TBS/Tween20 and incubated with the corresponding IgG-horseradish peroxidase (HRP) secondary antibody (Bio-Rad, 1706515 & 1706516) for two hours at room temperature with orbital shaking. […]

[3] = molecular target: T1, RPA; design: method as in PMID 25070753; details: cited from earlier work
[4] = tested on: ATR phosphorylation events; design: method as in PMID 25070753; details: cited from earlier work
[5] = molecular target: RPA (His-tagged heterotrimer RPA70/RPA32/RPA14) (UniProt P27694;P15927;P35244 1-616;1-270;1-121); assay: EMSA; binding not disrupted by PAME 12.5-200 uM; PAME EMSA: 10 mM Tris pH 7.5, 10 mM NaCl, 10% glycerol, 25 C, 10 nM DNA, 7 nM (ssDNA) or 14 nM (duplex) RPA, 1% agarose; acetylation EMSA: 20 mM HEPES pH 7.8, 50 mM NaCl, 1 mM DTT, 5% DMSO, 0.001% NP-40, RT, 2.5 nM DNA, 6% native PAGE; details: protein: recombinant; tags: His (on RPA70, plasmid p11d-tRPA70-His); copies: 1;1;1; label: 5' IRDye700; single strand
RPA (His-tagged heterotrimer RPA70/RPA32/RPA14), sequence (P27694 whole entry, chain 1 of 3): as the sequence (P27694 whole entry) above
RPA (His-tagged heterotrimer RPA70/RPA32/RPA14), sequence (P15927 whole entry, chain 2 of 3): as the sequence (P15927 whole entry partner) above
RPA (His-tagged heterotrimer RPA70/RPA32/RPA14), sequence (P35244 whole entry, chain 3 of 3): as the sequence (P35244 whole entry partner) above

Molecule: CS(=O)(=O)c1ccc(-c2cnc(N)c(C(=O)Nc3ccccc3)n2)cc1 [VE-821]
ATR-dependent phosphorylation of RPA32 Ser33 and Thr21 [2]: abolished | ATR-dependent phosphorylation of p53 Ser15 [2]: no p53 phosphorylation is observed

Molecule: TTTTTTTTTTTTTTTTTTTTTTTTTTTTTT (ssDNA) [polyT 30mer]
binding result [5]: binds

Continued, in another order:

IC50 ([2]; read-out: IC50 for ATR-dependent RPA32 Ser33 phosphorylation): 5 to 10 µM | IC50 ([2]; read-out: IC50 for ATR-dependent RPA32 Thr21 phosphorylation): 5 to 10 µM | IC50 ([2]; read-out: IC50 for ATR-dependent p53 Ser15 phosphorylation): 5 to 10 µM | RPA phosphorylation at RPA32 Ser33 and Thr21 at low inhibitor concentration ([2]; low concentrations of inhibitor (Fig. 2C, lane 3), not observed with p53 Ser15): stimulated | ATR-dependent phosphorylation of RPA32 Ser33 and Thr21 [2]: dose-dependent inhibition | ATR-dependent phosphorylation of p53 Ser15 [2]: titratable inhibition
Molecule: CCOc1ccc2cc(C3CC(c4ccc(I)cc4)=NN3C(=O)CCCC(=O)O)c(Cl)nc2c1 (stereo not drawn) [TDRL-551]
IC50 [1]: ~15 µM

IC50 for RPA32 phosphorylation (both residues) lower than that of p53 phosphorylation ([2]; RPA32 Ser33 and Thr21 vs p53 Ser15): ~ 10 fold | ATR-dependent phosphorylation of RPA32 Ser33 and Thr21 [2]: inhibited | ATR-dependent phosphorylation of p53 Ser15 [2]: inhibited
Molecule: O=C1C=Cc2ccccc2/C1=C/Nc1ccccc1O [HAMNO, (1Z)-1-[(2-hydroxyanilino)methylidene]naphthalen-2-one]
RPA ssDNA binding [3]: did not disrupt | levels of ATR phosphorylation events in treated cells [4]: lower levels of ATR phosphorylation events
